Where two headings read alike, the source gives them in different places.
Experiments:
[1] = tested on: coxsackievirus B3 Nancy strain; test: microbe, parasite or virus in culture; format: cell-based; settings: Enterovirus B, Vero A host cell
[2] = tested on: BrCr Lab Strain of EV-A71; test: Antiviral activity against the BrCr lab strain of EV-A71 in RD cells (CPE reduction, MTS/PMS); format: cell-based; settings: Enterovirus A, EVA71, RD, read-out: EC50
[3] = tested on: HIV-1 (NL4.3); test: microbe, parasite or virus in culture; format: cell-based; settings: Human immunodeficiency virus 1, MT4; MT-4 cells; 50% reduction of virus-induced cytopathic effect
[4] = tested on: EV71 genogroup C4 strain TW/1956/05; test: microbe, parasite or virus in culture; format: cell-based; settings: Enterovirus A, genogroup C4, strain TW/1956/05, RD cells
[5] = tested on: rhinovirus 14; test: microbe, parasite or virus in culture; format: cell-based; settings: Enterovirus; rhinovirus 14, HeLa Rh host cell
[6] = tested on: EV71 genogroup C2 strain H08300 461#812; test: microbe, parasite or virus in culture; format: cell-based; settings: Enterovirus A, genogroup C2, strain H08300 461#812, RD cells
[7] = target: gp120 binding of mAb 9305 (Human immunodeficiency virus type 1, UniProt P03377); test: cell-based; settings: HIV-1 NL4.3-infected MT-4 cells, flow cytometry
[8] = in vitro; settings: human
[9] = tested on: enterovirus D68 CU70 strain; test: microbe, parasite or virus in culture; format: cell-based; settings: Enterovirus D, HeLa Rh host cell
[10] = target: gp120 binding of mAb clone 9284 (Human immunodeficiency virus type 1, UniProt P03377); test: Competition with anti-gp120 mAb 9284 on HIV-1-infected MT-4 cells (flow cytometry); format: cell-based, HIV-1 NL4.3
Procedure: (§1) We then investigated the putative gp120 binding site for this class of compounds using competition-binding experiments with mAbs directed to different protein regions: (i) human mAb clone 2G12, whose epitope, composed entirely of N-linked glycans, is centered at position N332;[56]
(§2) These tests were carried out in cell culture using CD4^+ MT-4 T cells that express high levels of gp120 on their membrane when they become infected.

[11] = tested on: HIV-2 (ROD); test: Anti-HIV-2 activity in MT-4 cells (CPE, MTS/PES); format: cell-based; settings: Human immunodeficiency virus 2, MT4, MT-4 cells; 50% reduction of virus-induced cytopathic effect; read-out: HIV-2 (ROD) EC50
[12] = tested on: rhinovirus 2; test: microbe, parasite or virus in culture; format: cell-based; settings: Enterovirus; rhinovirus 2, HeLa Rh host cell
[13] = target: T1, recombinant HIV-1 IIIB gp120 (Human immunodeficiency virus type 1 group M subtype B, UniProt P03375); test: biochemical; format: binding; settings: SPR, four replicates
T1 construct: purchased ImmunoDx, Woburn, Massachusetts; host or cells: Chinese hamster ovary cells

[14] = tested on: HIV-1 (NL4.3); test: microbe, parasite or virus in culture; format: cell-based; settings: Human immunodeficiency virus 1; CXCR4-tropic strain, PBMC; read-out: HIV-1 (NL4.3) EC50
[15] = target: gp120 binding of mAb clone 447-52D (Human immunodeficiency virus type 1, UniProt P03377); test: Competition with anti-gp120 mAb 447-52D on HIV-1-infected MT-4 cells (flow cytometry); format: cell-based, HIV-1 NL4.3
Procedure: as §1, §2
anti-mouse mAb). This is background staining or called negative control (NC).
bPositive control. HIV-1 infected cells stained with the first (anti-HIV-1 envelope antibody) and then the
This is the positive control (PC).
Finally, the mannose-specific lectin Hippeastrum hybrid agglutinin

[16] = target: gp120 binding of mAb 2G12 (Human immunodeficiency virus type 1, UniProt P03377); test: cell-based; format: cell-based; settings: HIV-1 NL4.3-infected MT-4 cells, flow cytometry
[17] = tested on: EV-A71 VP1 (P246S); format: cell-based
[18] = tested on: EV71 genogroup B2 strain 11316; test: microbe, parasite or virus in culture; format: cell-based; settings: Enterovirus A, genogroup B2, strain 11316, RD cells
[19] = tested on: EV-A71 VP1 (S184T/P246S); format: cell-based
[20] = tested on: EV-A71 VP1 (S184T); format: cell-based
[21] = tested on: HIV-1 (Ba-L); test: microbe, parasite or virus in culture; format: cell-based; settings: Human immunodeficiency virus 1, BAL; CCR5-tropic strain, PBMC; read-out: HIV-1 (Ba-L) EC50
[22] = target: T2, gp120-CD4 binding (Human immunodeficiency virus type 1 group M subtype B, UniProt P03375); test: biochemical
T2 construct: […]; purchased CD4: Life Technologies Europe, Merelbeke, Belgium; gp120: not restated here (ImmunoDx inferred)

[23] = in vitro; settings: human; remark: listed apart in the source
[24] = tested on: EV71 genogroup B5 strain TW/70902/08; test: microbe, parasite or virus in culture; format: cell-based; settings: Enterovirus A, genogroup B5, strain TW/70902/08, RD cells

In the case of O=C(CCOCC(COCCC(=O)NC(Cc1c(-c2cc(C(=O)O)cc(C(=O)O)c2)[nH]c2c(-c3cc(C(=O)O)cc(C(=O)O)c3)cccc12)C(=O)O)(COCCC(=O)NC(Cc1c(-c2cc(C(=O)O)cc(C(=O)O)c2)[nH]c2c(-c3cc(C(=O)O)cc(C(=O)O)c3)cccc12)C(=O)O)COCCC(=O)NC(Cc1c(-c2cc(C(=O)O)cc(C(=O)O)c2)[nH]c2c(-c3cc(C(=O)O)cc(C(=O)O)c3)cccc12)C(=O)O)NC(Cc1c(-c2cc(C(=O)O)cc(C(=O)O)c2)[nH]c2c(-c3cc(C(=O)O)cc(C(=O)O)c3)cccc12)C(=O)O (stereo not drawn) [Compound 33], the EC50 [1] is reported as greater than 50000 nM, the EC50 ([2]; BrCr lab strain, RD cells, 50% reduction of virus-induced CPE) is reported as 40 ± 10 nM and the EC50 ([2]; BrCr wild type (cross-resistance study)) is reported as 30 ± 10 nM. For the same molecule, the EC50 ([2]; enterovirus panel, enterovirus A71 BrCr strain, RD host cell) was 40 ± 7 nM, the EC50 ([2]; genogroup A, BrCr, RD cells (clinical isolate panel)) was 43 ± 6 nM and the EC50 [3] was 6 ± 5 nM. The EC50 [4] was 11 ± 0.2 nM, the EC50 [5] was greater than 50000 nM and the EC50 [6] was 120 ± 6 nM. The IC50 [7] was greater than 100000 nM, the CC50 [8] was greater than 100000 nM and the EC50 [9] was greater than 50000 nM. It also gave an IC50 ([10]; HIV-1 NL4.3-infected MT-4 cells, flow cytometry, average, read-out: 9284 IC50) of 3800 nM, an inhibition at 0.16 µM ([10]; MT4, mAb 9284, 0.16 µM, Table S2, read-out: % inhibition of antibody binding) of 25.1% and an inhibition at 0.8 µM ([10]; MT4, mAb 9284, 0.8 µM, Table S2, read-out: % inhibition of antibody binding) of 37.9%. For the same molecule, the inhibition at 4 µM ([10]; MT4, mAb 9284, 4 µM, Table S2, read-out: % inhibition of antibody binding) was 51.4%, the inhibition at 20 µM ([10]; MT4, mAb 9284, 20 µM, Table S2, read-out: % inhibition of antibody binding) was 61.1% and the “% inhibition of antibody binding” value ([10]; mAb 9284, 0.16 µM, Table S2, listed as AL-518, 0.16 µM) was 25%. For the same molecule, the “% inhibition of antibody binding” value ([10]; mAb 9284, 20 µM, Table S2, listed as AL-518, 20 µM) was 61%, the IC50 ([10]; mAb 9284, Table S2, read-out: IC50) was 3370 nM and the EC50 [11] was roughly 60 nM. The EC50 [12] was greater than 50000 nM, the kd ([13]; 1:1 Langmuir model) was 2.45 ± 0.34 ×10^–3 s^–1 and the kon ([13]; 1:1 Langmuir model, read-out: ka) was 3340 ± 1020 M⁻¹ s⁻¹. It also gave a Kd ([13]; apparent KD) of 840 ± 340 nM, an EC50 [14] of 33 nM and an IC50 ([15]; HIV-1 NL4.3-infected MT-4 cells, flow cytometry, average, read-out: 447-52D IC50) of 6800 nM. The inhibition at 0.16 µM ([15]; MT4, mAb 447-52D, 0.16 µM, Table S1, read-out: % inhibition of antibody binding) was 16.9%, the inhibition at 0.8 µM ([15]; MT4, mAb 447-52D, 0.8 µM, Table S1, read-out: % inhibition of antibody binding) was 23.9% and the inhibition at 4 µM ([15]; MT4, mAb 447-52D, 4 µM, Table S1, read-out: % inhibition of antibody binding) was 36.5%. The inhibition at 20 µM ([15]; MT4, mAb 447-52D, 20 µM, Table S1, read-out: % inhibition of antibody binding) was 76.9%, the “% inhibition of antibody binding” value ([15]; mAb 447-52D, 0.16 µM, Table S1, listed as AL-518, 0.16 µM) was 17% and the “% inhibition of antibody binding” value ([15]; mAb 447-52D, 20 µM, Table S1, listed as AL-518, 20 µM) was 77%. The IC50 ([15]; mAb 447-52D, Table S1, read-out: IC50) was 6850 nM, the “2G12 IC50” value [16] was “did not prevent the binding” and the IC50 [16] was greater than 100000 nM. It also gave an EC50 [17] of 30 ± 10 nM, an EC50 [18] of 101 ± 11 nM and an EC50 [19] of 60 ± 40 nM. For the same molecule, the EC50 [20] was 100 ± 10 nM, the EC50 [21] was 36 nM and the IC50 ([22]; SPR, 25 nM gp120, immobilized CD4, read-out: concentration inhibiting 50% of gp120-CD4 binding) was 10 to 40 nM. For the same molecule, the “times more potent than AL-471” value ([22]; inhibition of gp120-CD4 binding) was “at least 16”, the CC50 [23] was greater than 100000 nM and the EC50 [24] was 10 ± 1.5 nM.

Source: article PMC8389807 (Journal of Medicinal Chemistry, 2021)
